Literature values as cited in US9642861B2, “Methods of treating oral mucositis” (priority 2006, dated 2017).

System: animal models of inflammation
Conditions: in vivo; cited from earlier work

[Cl-].[Cl-].[Mn+2].c1cc2nc(c1)CN[C@@H]1CCCC[C@H]1NCCN[C@@H]1CCCC[C@H]1NC2 [M40403]
efficacy in animal models of inflammation: effective
